The source of these data is patent US7615523B2, “Lens care product containing dexpanthenol” (Novartis AG, priority 2006, dated 2009).

Data set [1] can be described thus: cytotoxicity studies on addition of dexpanthenol and D-sorbit. The data set is classed as cell-based. Conditions: addition of sorbit to compositions containing antimicrobial compounds, e.g. PHMB.
Data set [2] in a line: antimicrobial (microbiological) efficacy of contact lens care solutions. Conditions: addition of sorbit to contact lens care compositions.
Data set [3] can be described thus: stabilisation of the lachrymal film when inserting contact lenses. Conditions: when/after inserting the contact lenses. The text has this:
Dexpanthenol, an alcohol of pantothenic acid, also called Provitamin B5, D-pantothenyl alcohol or D-panthenol, has been used for a long time for healing wounds or in the field of medicinal skin care. […] Vortex motion of the lachrymal liquid can occur through the insertion of contact lenses, namely because of mechanical eruption or through surface-active substances optionally present in the contact lens solution and can lead to severe loss of the aqueous lachrymal layer. […] This guards against the appearance of dryness, which can lead to a reduced lachrymal film.
The addition of D-sorbit to adjust the tonicity of contact lens care products is known. GB 2,205,175 and U.S. Pat. No. 3,888,782 describe sorbit as a carrier material for the preparation of powder mixtures for contact lens care products. […] This guards against the appearance of dryness, which can lead to a reduced lachrymal film. […] Negative effects caused by surface-active substances and preservatives are reduced and the contact lenses are prevented from drying out.

Regarding `OC[C@@H](O)[C@@H](O)[C@H](O)[C@@H](O)CO` [sorbit, D-sorbit], in data set [1], the toxicity result is on record as “without resulting in negative effects as regards toxicity”. The “effect on microbiological efficacy of antimicrobial compounds present, e.g. PHMB” value in data set [2] is given as “substantially increases the microbiological efficacy”.
With `CC(C)(CO)[C@@H](O)C(=O)NCCCO` [dexpanthenol], the lachrymal film stabilisation entry in data set [3] is “stabilises the lachrymal film”.
